Measurements reported in ChEMBL document CHEMBL5233273, “An overview of hydroxypyranone and hydroxypyridinone as privileged scaffolds for novel drug discovery” (Eur J Med Chem, 2021).
pEC50, pIC50: −log10 of the molar value. In brackets after ≈: the same amount, converted by molar mass.

Tests used:
Tyrosinase [1] = target: T1, Tyrosinase (Agaricus bisporus, UniProt O42713); test: Inhibition of mushroom tyrosinase
T1 sequence (O42713 whole entry): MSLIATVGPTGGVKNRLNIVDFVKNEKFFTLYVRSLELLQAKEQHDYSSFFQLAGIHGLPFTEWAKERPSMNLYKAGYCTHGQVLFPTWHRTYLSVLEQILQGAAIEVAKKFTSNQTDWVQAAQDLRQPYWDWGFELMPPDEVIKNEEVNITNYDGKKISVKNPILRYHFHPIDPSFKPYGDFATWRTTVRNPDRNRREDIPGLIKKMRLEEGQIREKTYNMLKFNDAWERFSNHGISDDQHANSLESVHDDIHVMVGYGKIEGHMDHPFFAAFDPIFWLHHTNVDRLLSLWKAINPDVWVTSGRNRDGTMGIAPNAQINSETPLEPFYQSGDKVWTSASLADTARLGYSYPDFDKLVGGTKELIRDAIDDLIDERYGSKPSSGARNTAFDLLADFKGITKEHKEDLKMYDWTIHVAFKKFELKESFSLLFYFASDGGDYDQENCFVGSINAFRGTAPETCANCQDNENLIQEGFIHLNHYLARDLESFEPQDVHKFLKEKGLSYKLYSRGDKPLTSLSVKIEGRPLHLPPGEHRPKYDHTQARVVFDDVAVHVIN

[2] = system: Mycolicibacterium smegmatis; test: Antimycobacterial activity against Mycobacterium smegmatis; assay type: functional
DNA gyrase = DNA gyrase (Escherichia coli, UniProt P0AES4+P0AES6); test: Inhibition of Escherichia coli DNA gyrase; assay type: protein-complex assay
Candida albicans = test: Antifungal activity against Candida albicans ATCC 90028; assay type: functional
[3] = target: T2, Tyrosinase (Agaricus bisporus) (UniProt O42713); test: Potency index, ratio of kojic acid IC50 to test compound IC50 for inhibition of mushroom tyrosinase
T2 sequence (whole entry): T1 sequence (O42713 whole entry)

DU-145 = test: Cytotoxicity against human DU-145 cells; assay type: functional, cell-based
A549 = test: Cytotoxicity against human A549 cells; assay type: functional, cell-based
B16-F10 = test: Inhibition of tyrosinase in mouse B16-F10 cells assessed as inhibition of melanin production at 10 ug/ml relative to control; assay type: cell-based; settings: dose 10.0 µg/ml
Tyrosinase [4] = target: T1, Tyrosinase; test: Inhibition of mushroom tyrosinase diphenolase activity
[5] = target: T2, Tyrosinase (Agaricus bisporus); test: (§1) Inhibition of mushroom tyrosinase monophenolase activity
Pseudomonas aeruginosa = test: Antibacterial activity against Pseudomonas aeruginosa; assay type: functional
Bacillus subtilis = test: Antibacterial activity against Bacillus subtilis; assay type: functional
Staphylococcus aureus [6] = test: Antibacterial activity against Staphylococcus aureus; assay type: functional
Escherichia coli = test: Antibacterial activity against Escherichia coli; assay type: functional
RAW264.7 = test: Antiinflammatory activity in mouse RAW264.7 assessed as reduction in LPS-induced PGE2 production; assay type: functional, cell-based
HepG2 = test: Cytotoxicity against human HepG2 cells; assay type: functional, cell-based
[7] = system: Mycobacterium tuberculosis; test: Antitubercular activity against Mycobacterium tuberculosis H37Rv ATCC 27294; assay type: functional
Mycobacterium avium = test: Antitubercular activity against Mycobacterium avium ATCC 15769; assay type: functional
[8] = Inhibition of HIV-1 integrase; set-up: species or system Human immunodeficiency virus 1
[9] = Inhibition of TBHP induced lipid peroxidation in human HaCaT cells; assay type: functional
Staphylococcus aureus [10] = test: Antibacterial activity against Staphylococcus aureus assessed as zone of inhibition; assay type: functional
Tyrosinase [11] = target: T1, Tyrosinase; test: as §1

`Nn1c(SCc2cc(=O)c(O)co2)nnc1-c1ccc(Cl)cc1` showed a pIC50 (Tyrosinase [1]) of 5.35.
Work on `CCOC(=O)C1CCN(Cc2oc(C)cc(=O)c2O)CC1` yielded an MIC [2] of 8 µg/mL (≈ 27.1 µM).
With `Cc1[nH]c(C(=O)N[C@H]2CCc3nc(NC(=O)CCNC(=O)c4cc(=O)c(O)c[nH]4)sc3C2)c(Cl)c1Cl` the pIC50 (DNA gyrase) was 6.46.
With `Cc1cc(=O)c(O)c(CN2CCN(Cc3ccc4c(c3)OCO4)CC2)o1` the MIC (Candida albicans) was 64 µg/mL (≈ 179 µM).
In the case of `Cc1cc(=O)c(O)c(CN2CCCCC2C)o1` (stereo not given), the MIC [2] was 8 µg/mL (≈ 33.7 µM).
`O=c1cc(Cn2cc(COc3cccc4ccccc34)nn2)occ1O` gave a Ratio IC50 [3] of 31 and a pIC50 (Tyrosinase [1]) of 7.22.
With `Cc1cc(=O)c(O)c(CN2CCC(c3ccccn3)CC2)o1` the MIC [2] was 8 µg/mL (≈ 26.6 µM).
`CC(C)(C)[Si](C)(C)OCc1cc(=O)c(O)c(C(C[N+](=O)[O-])c2ccc(Br)cc2)o1` (stereo not given) showed a pIC50 (DU-145) of 4.89 and a pIC50 (A549) of 5.10.
For `Cc1cc(=O)c(O)c(CN2CCCCC2)o1`, the MIC [2] was 8 µg/mL (≈ 35.8 µM).
Work on `Cc1cc(=O)c(O)c(CN2CCC(CO)CC2)o1` yielded an MIC [2] of 8 µg/mL (≈ 31.6 µM).
For `CC(=O)Nc1ccc(OCc2cn(Cc3cc(=O)c(O)co3)nn2)cc1`, the pIC50 (Tyrosinase [1]) was 7.22.
`O=c1cc(CSc2ccc(O)cc2)occ1O` showed a pIC50 (Tyrosinase [1]) of 6.27.
For `N#Cc1ccc(OCc2cn(Cc3cc(=O)c(O)co3)nn2)cc1`, the pIC50 (Tyrosinase [1]) was 7.22.
In the case of `O=c1cc(Cn2cc(COc3ccc(CO)cc3)nn2)occ1O`, the pIC50 (Tyrosinase [1]) was 7.22.
`CC(=O)c1ccc(N2CCN(Cc3oc(C)cc(=O)c3O)CC2)cc1` gave an MIC (Candida albicans) of 64 µg/mL (≈ 187 µM).
`COc1ccc(OCc2cn(Cc3cc(=O)c(O)co3)nn2)cc1` showed a pIC50 (Tyrosinase [1]) of 7.22.
`Cc1cc(=O)c(O)c(CN2CCN(c3ccccc3)CC2)o1` showed an MIC (Candida albicans) of 64 µg/mL (≈ 213 µM).
Work on `O=c1cc(Cn2cc(COc3ccc4ccccc4c3)nn2)occ1O` yielded a Ratio IC50 [3] of 155 and a pIC50 (Tyrosinase [1]) of 7.22.
With `O=C(/C=C/c1cc(=O)c(O)co1)OCCCOCCCOC(=O)/C=C/c1cc(=O)c(O)co1` the inhibition (B16-F10) was 22.4%.
With `CCCCCCn1cc(O)c(=O)cc1/C=N/OCC` the pIC50 (Tyrosinase [4]) was 4.86 and the IC5 [5] was 2.04 µM.
`Cc1cc(=O)c(O)c(CN2CCC(C)CC2)o1` gave an MIC [2] of 8 µg/mL (≈ 33.7 µM).
`CCCC(=O)NC(CCCNC(=O)c1c(O)c(=O)ccn1C)(CCCNC(=O)c1c(O)c(=O)ccn1C)CCCNC(=O)c1c(O)c(=O)ccn1C` gave an MIC (Pseudomonas aeruginosa) of 16 µg/mL (≈ 22 µM), an MIC (Bacillus subtilis) of 8 µg/mL (≈ 11 µM) and an MIC (Staphylococcus aureus [6]) of 8 µg/mL (≈ 11 µM). It also gave an MIC (Escherichia coli) of 8 µg/mL (≈ 11 µM).
`O=c1cc(/C=C/c2ccc(O)c(O)c2)occ1O` showed a pIC50 (RAW264.7) of 4.99.
`O=c1cc(CN2CCCC2)oc(CN2CCN(Cc3ccc(Br)c(F)c3)CC2)c1O` showed a pIC50 (HepG2) of 4.49.
`Cc1[nH]c(C(=O)N[C@H]2CCc3nc(NCc4cc(=O)c(O)co4)sc3C2)c(Cl)c1Cl` showed a pIC50 (DNA gyrase) of 5.68.
Molecule `O=C(OCc1cc(=O)c(O)co1)c1ccc2c(c1)OCO2` has a pIC50 (Tyrosinase [1]) of 5.82.
Molecule `O=c1cc(CN2CCCCC2)oc(CN2CCN(Cc3ccc(Br)c(F)c3)CC2)c1O` has a pIC50 (HepG2) of 4.43.
For `Cc1cc(=O)c(O)c(CN2CC(C)CC(C)C2)o1` (stereo not given), the MIC [2] was 8 µg/mL (≈ 31.8 µM).
`Cc1cc(=O)c(O)c(CN2C(C)CCCC2C)o1` (stereo not given) gave an MIC [2] of 8 µg/mL (≈ 31.8 µM).
`Cc1cc(=O)c(O)c(CN2CCN(c3ccccn3)CC2)o1` showed an MIC (Candida albicans) of 64 µg/mL (≈ 212 µM).
`O=c1cc(Cn2cc(COc3ccc(Cl)cc3)nn2)occ1O` gave a pIC50 (Tyrosinase [1]) of 7.22.
Molecule `O=C(C1CCCCC1)N1CCN(Cc2oc(CCl)cc(=O)c2O)CC1` has an MIC [7] of 4 µg/mL (≈ 10.8 µM) and an MIC (Mycobacterium avium) of 4 µg/mL (≈ 10.8 µM).
With `O=c1cc(Cn2cc(COc3ccc(Br)cc3)nn2)occ1O` the pIC50 (Tyrosinase [1]) was 7.22.
With `Cc1cc(=O)c(O)c(CN2CCN(c3cccc(C(F)(F)F)c3)CC2)o1` the MIC (Candida albicans) was 64 µg/mL (≈ 174 µM).
In the case of `Cc1cc(=O)c(O)c(C(=O)NCc2ccc(Cl)cc2)o1`, the pEC50 [8] was 5.71 and the pIC50 [8] was 5.76.
For `O=C(/C=C/c1ccc2c(c1)OCO2)OCc1cc(=O)c(O)co1`, the “inhibition (INH)” value [9] was 47% and the pIC50 (Tyrosinase [1]) was 5.85.
With `Cn1cc(O)c(=O)cc1C(=O)Nc1ccccc1` the MIC (Staphylococcus aureus [6]) was 16 µg/mL (≈ 65.5 µM).
Molecule `O=C(/C=C/c1ccc2c(c1)OCCO2)OCc1cc(=O)c(O)co1` has a pIC50 (Tyrosinase [1]) of 5.82.
With `Cc1cc(=O)c(O)c(CN2CCC(O)CC2)o1` the MIC [2] was 8 µg/mL (≈ 33.4 µM).
In the case of `Cc1cc(=O)c(O)c(CN2CCC(Cc3ccccc3)CC2)o1`, the MIC [2] was 8 µg/mL (≈ 25.5 µM).
For `Cc1cc(=O)c(O)c(CN2CCN(c3ccc([N+](=O)[O-])cc3)CC2)o1`, the MIC (Candida albicans) was 64 µg/mL (≈ 185 µM).
For `O=C(/C=C/c1ccc(C(=O)OCc2cc(=O)c(O)co2)cc1)c1ccccc1`, the “inhibition zone (IZ)” value (Staphylococcus aureus [10]) was 8 mm.
In the case of `Cc1cc(=O)c(O)c(CN2CCC(N3CCOCC3)CC2)o1`, the MIC [2] was 8 µg/mL (≈ 25.9 µM).
`CCCCCCCCn1cc(O)c(=O)cc1COC(=O)[C@@H](N)Cc1ccccc1` showed a pIC50 (Tyrosinase [4]) of 5.40 and a pIC50 (Tyrosinase [11]) of 4.90.
